Experiment: M4N solubility in water miscible organic solvents up to 48 hours (RP-HPLC)
Type: physicochemical
Protocol: To prepare M4N samples, 200 μL of 100 mg/mL M4N dissolved in acetone were placed in 1.5 mL polypropylene microtubes. The solvent was allowed to evaporate at room temperature for 48 hours until the samples were completely dry.
The water miscible organic solvent formulations were prepared in 15 mL polypropylene centrifuge tubes. 10 mL of each formulation was prepared. Each solvent was added on the basis of weight using its respective density at 25° C. Following brief mixing, each formulation was filtered through a 0.45 μm surfactant free cellulose acetate (“SFCA”) filter into a fresh 15 mL tube. Formulations were kept at room temperature until ready for use.
At each time point, the samples were centrifuged for 2 minutes at 13,000 rpm to pellet any solid M4N. As noted in Table 25, over half of the formulation conditions examined were able to solubilize M4N to a concentration of greater than 10 mg/Ml.

COc1ccc(C[C@@H](C)[C@@H](C)Cc2ccc(OC)c(OC)c2)cc1OC [Formulation M4N, meso-1,4-bis(3,4-dimethoxyphenyl)-2,3-dimethylbutane]
M4N solubility (14% EtOH, 30% PG, 40% Crem, 10% T80, 6% DMA, 2 hrs at room temperature): 9030 µg/mL
M4N solubility (14% EtOH, 30% PG, 40% Crem, 10% T80, 6% DMA, 24 hrs at room temperature): 12080 µg/mL
M4N solubility (14% EtOH, 30% PG, 40% Crem, 10% T80, 6% DMA, 48 hrs at room temperature): 12280 µg/mL
M4N solubility (14% EtOH, 30% PG, 40% Glyc, 10% T80, 6% DMA, 2 hrs at room temperature): 850 µg/mL
M4N solubility (14% EtOH, 30% PG, 40% Glyc, 10% T80, 6% DMA, 24 hrs at room temperature): 1240 µg/mL
M4N solubility (14% EtOH, 30% PG, 40% Glyc, 10% T80, 6% DMA, 48 hrs at room temperature): 1480 µg/mL
M4N solubility (14% EtOH, 30% PG, 40% PEG300, 10% T80, 6% DMA, 2 hrs at room temperature): 9400 µg/mL
M4N solubility (14% EtOH, 30% PG, 40% PEG300, 10% T80, 6% DMA, 24 hrs at room temperature): 10550 µg/mL
M4N solubility (14% EtOH, 30% PG, 40% PEG300, 10% T80, 6% DMA, 48 hrs at room temperature): 11300 µg/mL
M4N solubility (18% EtOH, 30% PG, 40% Crem, 10% T80, 2% Benz, 2 hrs at room temperature): 8640 µg/mL
M4N solubility (18% EtOH, 30% PG, 40% Crem, 10% T80, 2% Benz, 24 hrs at room temperature): 11780 µg/mL
M4N solubility (18% EtOH, 30% PG, 40% Crem, 10% T80, 2% Benz, 48 hrs at room temperature): 11860 µg/mL
M4N solubility (18% EtOH, 30% PG, 40% Glyc, 10% T80, 2% Benz, 2 hrs at room temperature): 580 µg/mL
M4N solubility (18% EtOH, 30% PG, 40% Glyc, 10% T80, 2% Benz, 24 hrs at room temperature): 1010 µg/mL
M4N solubility (18% EtOH, 30% PG, 40% Glyc, 10% T80, 2% Benz, 48 hrs at room temperature): 1150 µg/mL
M4N solubility (18% EtOH, 30% PG, 40% PEG300, 10% T80, 2% Benz, 2 hrs at room temperature): 7840 µg/mL
M4N solubility (18% EtOH, 30% PG, 40% PEG300, 10% T80, 2% Benz, 24 hrs at room temperature): 9790 µg/mL
M4N solubility (18% EtOH, 30% PG, 40% PEG300, 10% T80, 2% Benz, 48 hrs at room temperature): 10160 µg/mL
M4N solubility (24% EtOH, 30% PG, 30% Crem, 10% T80, 6% DMA, 2 hrs at room temperature): 10420 µg/mL
M4N solubility (24% EtOH, 30% PG, 30% Crem, 10% T80, 6% DMA, 24 hrs at room temperature): 11250 µg/mL
M4N solubility (24% EtOH, 30% PG, 30% Crem, 10% T80, 6% DMA, 48 hrs at room temperature): 12480 µg/mL
M4N solubility (24% EtOH, 30% PG, 30% Glyc, 10% T80, 6% DMA, 2 hrs at room temperature): 1630 µg/mL
M4N solubility (24% EtOH, 30% PG, 30% Glyc, 10% T80, 6% DMA, 24 hrs at room temperature): 2260 µg/mL
M4N solubility (24% EtOH, 30% PG, 30% Glyc, 10% T80, 6% DMA, 48 hrs at room temperature): 2520 µg/mL
M4N solubility (24% EtOH, 30% PG, 30% PEG300, 10% T80, 6% DMA, 2 hrs at room temperature): 9910 µg/mL
M4N solubility (24% EtOH, 30% PG, 30% PEG300, 10% T80, 6% DMA, 24 hrs at room temperature): 10800 µg/mL
M4N solubility (28% EtOH, 30% PG, 30% Crem, 10% T80, 2% Benz, 2 hrs at room temperature): 8980 µg/mL
M4N solubility (28% EtOH, 30% PG, 30% Crem, 10% T80, 2% Benz, 24 hrs at room temperature): 11350 µg/mL
M4N solubility (28% EtOH, 30% PG, 30% Crem, 10% T80, 2% Benz, 48 hrs at room temperature): 11280 µg/mL
M4N solubility (28% EtOH, 30% PG, 30% Glyc, 10% T80, 2% Benz, 2 hrs at room temperature): 1860 µg/mL
M4N solubility (28% EtOH, 30% PG, 30% Glyc, 10% T80, 2% Benz, 24 hrs at room temperature): 2220 µg/mL
M4N solubility (28% EtOH, 30% PG, 30% Glyc, 10% T80, 2% Benz, 48 hrs at room temperature): 2530 µg/mL
M4N solubility (28% EtOH, 30% PG, 30% PEG300, 10% T80, 2% Benz, 2 hrs at room temperature): 8870 µg/mL
M4N solubility (28% EtOH, 30% PG, 30% PEG300, 10% T80, 2% Benz, 24 hrs at room temperature): 10190 µg/mL
M4N solubility (28% EtOH, 30% PG, 30% PEG300, 10% T80, 2% Benz, 48 hrs at room temperature): 10270 µg/mL
M4N solubility (44% EtOH, 50% Crem, 6% DMA, 2 hrs at room temperature): 14850 µg/mL
M4N solubility (44% EtOH, 50% Crem, 6% DMA, 24 hrs at room temperature): 20420 µg/mL
M4N solubility (44% EtOH, 50% Crem, 6% DMA, 48 hrs at room temperature): 21080 µg/mL
M4N solubility (44% EtOH, 50% Glycerol, 6% DMA, 2 hrs at room temperature): 1430 µg/mL
M4N solubility (44% EtOH, 50% Glycerol, 6% DMA, 24 hrs at room temperature): 1900 µg/mL
M4N solubility (44% EtOH, 50% Glycerol, 6% DMA, 48 hrs at room temperature): 2010 µg/mL
M4N solubility (44% EtOH, 50% PEG300, 6% DMA, 2 hrs at room temperature): 15120 µg/mL
M4N solubility (44% EtOH, 50% PEG300, 6% DMA, 24 hrs at room temperature): 18610 µg/mL
M4N solubility (44% EtOH, 50% PEG300, 6% DMA, 48 hrs at room temperature): 18270 µg/mL
M4N solubility (44% EtOH, 50% PG, 6% DMA, 2 hrs at room temperature): 4800 µg/mL
M4N solubility (44% EtOH, 50% PG, 6% DMA, 24 hrs at room temperature): 5480 µg/mL
M4N solubility (44% EtOH, 50% PG, 6% DMA, 48 hrs at room temperature): 2930 µg/mL
M4N solubility (44% EtOH, 50% T80, 6% DMA, 2 hrs at room temperature): 17720 µg/mL
M4N solubility (44% EtOH, 50% T80, 6% DMA, 24 hrs at room temperature): 22410 µg/mL
M4N solubility (44% EtOH, 50% T80, 6% DMA, 48 hrs at room temperature): 23000 µg/mL

Source: US20080096967A1, “Formulations for Injection of Catecholic Butanes, Including Ndga Compounds, Into Animals” (priority 2005, published 2008)
